Measurements published in patent publication US11284615B2, “Cryopreservation using sucralose” (East Carolina University, priority 2015, dated 2022).

What was measured:
mouse myoblasts = test: Cytotoxicity of sucralose on nucleated cells; assay type: cell-based
Excerpt: Protection against hemolysis of red blood cells in the presence of increasing amounts of sucralose was examined at 3.5×(˜0.7 billion cells/ml) and 7×(˜1.4 billion cells/ml) the original red blood cell count, and are shown in FIGS. 15A and 15B, respectively. […] In addition, studies on the cytotoxicity of sucralose on nucleated cells, mouse myoblasts, indicate that sucralose concentrations in excess of about 2.5% w/v may have toxic effects.

red blood cells [1] = test: Percent hemolysis of red blood cells frozen with sucralose and thawed; assay type: cell-based, sheep; details: for protective effect compared with 20% glycerol solution: equivalent volume of 20% v/v glycerol, blood frozen for 48 hours; for protection during freezing (hemolysis): measured against triton X and PBS
Description: (§1) Experiments that measure the percent hemolysis of red blood cells before and after treatment were carried out using sheep blood.
This is data from blood frozen for 48 hours.
(§2) We measured absorption at three wavelengths (450 nm, 500 nm and 525 nm, shown in FIGS. 10, 11 and 12, respectively). […] That is why the error bars are smallest for those.

[2] = Differential scanning calorimetry of unilamellar DPPC vesicles with added sugar; assay type: physicochemical; details: for cooperativity of the transition (peak width at half peak height, PWHH) / enthalpy of main phase transition / main phase transition temperature of DPPC liposomes: increasing mole ratio of sugar to lipid; for main phase transition temperature of DPPC liposomes: DSC 30-60 °C at 2 °C/min, DPPC alone ~42 °C
Description: Methods: Unilamellar vesicles were prepared by extrusion. Sucrose or sucralose was added to the vesicles to achieve the desired mole ratio after vesicle formation. Differential scanning calorimetry was used to examine the main phase behavior of the liposome bilayer. Thermograms were obtained in the heating and cooling directions between 30° C. and 60° C. at a rate of 2° C./min.

red blood cells [3] = test: Percent hemolysis of red blood cells on addition of sucralose (no freezing); assay type: cell-based, sheep; details: measured against PBS buffer and triton X
Description: as §1, §2

Structure (SMILES)	sucralose concentration that may have toxic effects (mouse myoblasts)	protective effect compared with 20% glycerol solution (red blood cells [1])	protective effect compared with 20% glycerol solution (red blood cells [1]; listed as sugar)	protection during freezing (hemolysis) (red blood cells [1]; frozen and thawed)	protection during freezing (hemolysis) (red blood cells [1]; frozen and thawed, listed as sugar)	sucralose concentration resulting in decreased efficacy in protecting red blood cells from hemolysis (red blood cells [1]; frozen and thawed, ~0.7 and ~1.4 billion cells/ml)	amount of sucralose required for cryopreservation of red blood cells (red blood cells [1]; red blood cell count about 0.2 to 1.4 billion cells/ml)	shoulders in thermograms (indicative of phase separation) ([2]; cooling cycle)	shoulders in thermograms (indicative of phase separation) ([2]; heating cycle)	cooperativity of the transition (peak width at half peak height, PWHH) [2]	enthalpy of main phase transition [2]	main phase transition temperature of DPPC liposomes [2]	induction of hemolysis on addition (red blood cells [3])
OC[C@H]1O[C@H](O[C@]2(CCl)O[C@H](CCl)[C@@H](O)[C@@H]2O)[C@H](O)[C@@H](O)[C@H]1Cl [sucralose, 1,6-Dichloro-1,6-dideoxy-β-D-fructofuranosyl-4-chloro-4-deoxy-α-D-galactopyranoside]	above 2.5 % w/v	better than using an equivalent volume of a 20% glycerol solution	performs better than a 20% v/v solution of glycerol	substantially reduces hemolysis	protective effect	above 2.5 % w/v	increases with an increase of red blood cell concentration	not seen	a shoulder is seen in some thermograms	drastic decrease in cooperativity	remained essentially unchanged	decreased significantly	does not induce hemolysis
OC[C@H]1O[C@@](CO)(O[C@H]2O[C@H](CO)[C@@H](O)[C@H](O)[C@H]2O)[C@@H](O)[C@@H]1O [sucrose]	–	–	–	–	–	–	–	shoulders are again observed	shoulders appear	decrease in cooperativity	remains relatively stable	little change	–
